Assay results published in PMC12738692, “Identification, characterization, and structure-activity relationship of the ASIC3-selective peptide WRPRFa” (Communications Chemistry, 2025).
Changes are numbered by the printed parent chain. Where no end group is shown, it is not given here.

Columns and labels:
ASIC3 E421Q = molecular target: T1, ASIC3 E421Q (Homo sapiens, UniProt Q9UHC3, E421Q); test: MPC peptide activity on ASIC3 E421Q mutant; format: cell-based; conditions: Emax constrained, read-out: EC50 (95% CI)
T1 construct: human ASIC3 (NM_004769.4); P2A-mCherry reporter (C, cleaved yes); expressed in transfected cells; host or cells: CHO cells (85050302, Sigma), transient transfection
T1 sequence (Q9UHC3 1-531 E421Q): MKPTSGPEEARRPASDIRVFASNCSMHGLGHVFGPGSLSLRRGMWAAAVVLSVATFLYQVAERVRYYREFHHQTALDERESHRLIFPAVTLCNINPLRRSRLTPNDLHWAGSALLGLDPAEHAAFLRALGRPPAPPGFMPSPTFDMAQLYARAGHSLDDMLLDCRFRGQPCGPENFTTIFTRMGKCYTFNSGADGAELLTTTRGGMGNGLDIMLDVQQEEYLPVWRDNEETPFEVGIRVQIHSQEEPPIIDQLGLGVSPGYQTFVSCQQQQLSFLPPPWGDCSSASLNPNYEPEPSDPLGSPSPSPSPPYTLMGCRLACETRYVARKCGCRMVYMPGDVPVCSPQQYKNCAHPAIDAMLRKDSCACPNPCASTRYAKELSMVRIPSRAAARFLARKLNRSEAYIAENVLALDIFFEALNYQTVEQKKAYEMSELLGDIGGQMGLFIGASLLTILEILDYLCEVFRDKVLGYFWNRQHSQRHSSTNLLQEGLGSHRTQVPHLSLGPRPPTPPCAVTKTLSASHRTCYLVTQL
Description: We individually mutated the four glutamates to glutamine to remove their charge but maintain the side chain structure (Fig. 4C). We tested each mutant by incubating HEK cells stably expressing ASIC3 or CHO cells transfected with mutant ASIC3 with 30 µM WRPRFa before a pH 6.3 acid stimulus.
Plasmids were transfected into CHO cells using Lipofectamine 3000 (Thermo) according to the manufacturer’s protocol. Cells were used for patch-clamp recordings 24–48 h after transfection.
CHO and HEK cells were tested in the whole-cell configuration on MPC platforms using an Axopatch 200B amplifier (Axon Instruments, San Jose, CA) and a Digidata 1322A or Digidata 1440A digitizer (Axon) using pClamp 9.2 or 10.7 (Molecular Devices, San Jose, CA), respectively. When testing transfected cells, red fluorescence from the cleaved mCherry reporter was used to identify cells expressing ASIC3, ASIC131, or ASIC313. For cells expressing transfected ASIC1a or ASIC2a, the green signal from the cleaved eGFP reporter was used. All electrophysiology data were analyzed with Clampfit 11.1 (Molecular Devices).
For peptide concentration-response curves, Bottom was set to 0 and Top was constrained to ≤ 1 for peptides that approached plateau phase or where I3s/Ipk reached 1. […] For activation- or desensitization-pH curves, Bottom was set to 0 and Top constrained to 1.

human ASIC3 = molecular target: T2, human ASIC3 (Homo sapiens, UniProt Q9UHC3); test: Time-dependence of WRPRFa wash off from activated (pH 6.3) and resting (pH 8.0) ASIC3; format: cell-based
T2 construct: CHO cells stably expressing human ASIC3 (NM_004769.1)
T2 sequence (Q9UHC3 1-531): T1 sequence (Q9UHC3 1-531 E421Q) with Q421E
Description: Next, we assessed the rate at which WRPRFa leaves the channel from the activated and closed states. We preincubated cells with WRPRFa to load channels with peptide, then used two different protocols to remove the peptide. For dissociation from the activated state, we preincubated cells at pH 8.0 with 30 µM WRPRFa, then continuously applied pH 6.3 without WRPRFa to activate the channels while washing off bound peptide. HEK cells poorly tolerate long periods of acid application and sodium influx, so acid application was kept to 1 min. […] The first decrease of current likely arose from desensitization of unbound channels, and possibly also from an initial dissociation of peptide from activated channels, which subsequently desensitized.
For dissociation from resting state channels, we continuously applied pH 8.0 without peptide to remove WRPRFa. Every 20 s the cells were given a 5 s application of pH 6.3 to quantify the remaining sustained current. A 5 s activation was used to minimize wash-off from the activated state, which was deemed negligible based on the observed off-rate under the pH 6.3 condition. The sustained current was about 95% gone after 3 min, with a time constant of 43.5 s (95% CI: 39.0–48.4 s) (Fig. 3D and E). […]

For WRPRF-NH2 [WRPRFa], the EC50 (ASIC3 E421Q) was ≥ 22.5 µM, the “current decrease within first 10 s at pH 6.3” value (human ASIC3; activated state wash off) was “about 22%” and the “sustained current gone after 3 min” value (human ASIC3; pH 8.0 wash off) was “about 95%”.
